Our source for the EC50 and CC50 values is patent US11596611B2, “Hepatitis B antiviral agents” (ENANTA PHARMACEUTICALS, INC., priority 2017, dated 2023).

The subject of one series is HBV. In words: HepAD38 antiviral assay: reduction of viral product accumulation (virion DNA by qPCR, HBsAg or HBeAg by ELISA). Conditions: Hepatitis B virus, 120 h; HepAD38 cells, five days after compound addition; 50% reduction of viral product vs no drug controls; read-out: HepAD38 EC50. It is filed as cell-based, hepatitis B virus. Put shortly:
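Readouts were qPCR of lysed virion DNA plus ELISA for HBsAg or HBeAg, samples diluted into linear range. HepAD38 cells, washed free of tetracycline, received compound diluted 1:200 from DMSO for 5 days; 8-day variant refreshed media and compound on days 2 and 5.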
(In general: Real-time PCR tracks product formation cycle by cycle.)

Series [1] is described as follows: Compound toxicity by ATPLite (total ATP levels). Conditions: human, three days after compound addition, 50% reduction of total ATP. It is filed as cell-based.

Broadly, the EC50 is the midpoint of the concentration-response curve. In general, CC50 refers to the concentration giving 50% cytotoxicity. Low readings indicate harm at low concentration, high ones better tolerance by the cells. `O=C(Nc1ccc(F)c(F)c1)c1ccc(Cl)c(S(=O)(=O)[C@H]2CC3CCC(C2)[C@]3(O)CNC(=O)c2nccs2)c1` [Example 168]: the EC50 in the series with HBV was less than 0.104 µM. The 50% cytotoxic concentration (CC50) at 3 days in series [1] (class symbols) fell in the range of 10 to 25 µM.
On to `C[C@H](O)[C@@H](O)[C@]1(O)C2CCC1C[C@@H](S(=O)(=O)c1cc(C(=O)Nc3ccc(F)c(F)c3)ccc1Cl)C2` (mixture of isomers) [Example 173], for which, in the series with HBV, the EC50 is less than 0.104 µM. Moreover, in series [1] (numeric bounds), the cytotoxic concentration (CC50) at 3 days was greater than 6.25 µM.
Regarding `CC(C)OC(=O)N[C@@H](C)C(=O)NC[C@]1(O)C2CCC1C[C@@H](S(=O)(=O)c1cc(C(=O)Nc3cc(F)c(F)c(F)c3)ccc1Cl)C2` [Example 70], in the series with HBV, the EC50 is less than 0.104 µM. In series [1] (class symbols), the CC50 at 3 days was greater than 25 µM.
Turning to `[2H]c1cc(F)c(F)c([2H])c1NC(=O)c1ccc(Cl)c(S(=O)(=O)[C@@H]2C([2H])([2H])C3CC[C@@H](C2([2H])[2H])[C@@]3(O)[C@@H](O)[C@H](C)O)c1` [Example 338], the EC50 in the series with HBV was less than 0.104 µM. Moreover, the CC50 at 3 days in series [1] (class symbols) was greater than 25 µM.
With `O=C(Nc1cc(F)c(F)c(F)c1)c1ccc(Cl)c(S(=O)(=O)[C@H]2CC3CCC(C2)[C@@]3(O)C(O)CO)c1` (mixture of isomers) [Example 10], the EC50 in the series with HBV was less than 0.104 µM. In series [1] (numeric bounds), this compound registered a 50% cytotoxic concentration (CC50) at 3 days greater than 12.5 µM.
The like results for `C[C@@H](O)[C@@H](O)[C@@]1(O)C2CC[C@H]1C[C@H](S(=O)(=O)c1cc(C(=O)Nc3cc(F)c(F)c(F)c3)ccc1Cl)C2` (single isomer, unassigned) [Example 136] were, in that order, less than 0.104 µM and greater than 12.5 µM.
